Reference: patent US20220378923A1, “BET DEGRADER” (KYOWA KIRIN CO., LTD., priority 2019, published 2022)
Like-named read-outs stand apart in the source and are kept apart here.

Tested on: SU-DHL-4 cells
Assay: Inhibitory effect on cell viability in SU-DHL-4 cell line (Test Example 1)
Format: cell-based, human
Settings: SU-DHL-4 cells, 72 hours, Cell Counting Kit-8, concentration showing 90% inhibition of cell viability, read-out: SU-DHL-4 Cell Viability Inhibition Rate IC90
Method in brief: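 SU-DHL-4 cells were grown at 37° C. under 5% CO2 in RPMI1640 with 10 vol % heat-inactivated FBS plus penicillin/streptomycin, seeded and precultured for 18 to 25 hours, then exposed to test compound at 0.1 vol % DMSO for 72 hours. Viability was read with Cell Counting Kit-8 by absorbance at 450 nm.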

IC90 (Homo sapiens) [nM] | IC90 [nM] | SMILES
32.7 |  | CCC(=O)N1c2ccccc2[C@H](Nc2ccc(NC(=O)CNCC(=O)Nc3ccc(N[C@@H]4C[C@H](C)N(C(=O)CC)c5ccccc54)nc3)cc2)C[C@@H]1C (relative stereo) [Compound 17g, N-(4-(((2S,4R)-2-Methyl-1-propionyl-1,2,3,4-tetrahydroquinolin-4-yl)amino)phenyl)-2-((2-((6-(((2S*,4R*)-2-methyl-1-propionyl-1,2,3,4-tetrahydroquinolin-4-yl)amino)pyridin-3-yl)amino)-2-oxoethyl)amino)acetamide]
 | 0.2 | CCC(=O)N1c2ccccc2[C@@H](Nc2ccc(-n3cc(CNC(=O)C4CCC(N[C@@H]5C[C@H](C)N(C(=O)CC)c6ccccc65)CC4)nn3)cn2)C[C@H]1C (relative stereo) [Compound 17h, (1R,4S)-4-(((2S,4R)-2-Methyl-1-propionyl-1,2,3,4-tetrahydroquinolin-4-yl)amino)-N-((1-(6-(((2R*,4S*)-2-methyl-1-propionyl-1,2,3,4-tetrahydroquinolin-4-yl)amino)pyridin-3-yl)-1H-1,2,3-triazol-4-yl)methyl)cyclohexane-1-carboxamide]
5.14 |  | CCC(=O)N1c2ccccc2[C@H](NCC23CC(C(=O)N4CC(C(=O)Nc5ccc(N[C@@H]6C[C@H](C)N(C(=O)CC)c7ccccc76)cc5)C4)(C2)C3)C[C@@H]1C (relative stereo) [Compound 17n, 1-(3-((((2S,4R)-2-Methyl-1-propionyl-1,2,3,4-tetrahydroquinolin-4-yl)amino)methyl)bicyclo[1.1.1]pentane-1-carbonyl)-N-(4-(((2S*,4R*)-2-methyl-1-propionyl-1,2,3,4-tetrahydroquinolin-4-yl)amino)phenyl)azetidine-3-carboxamide]
 | 33.1 | CCC(=O)N1c2ccccc2[C@H](Nc2ccc(C(=O)N[C@H]3C[C@H](NC(=O)c4ccc(N[C@@H]5C[C@H](C)N(C(=O)CC)c6ccccc65)cc4)C3)cc2)C[C@@H]1C [Compound 1j, N,N′-[(1r,3r)-Cyclobutane-1,3-diyl]bis(4-{[(2S,4R)-2-methyl-1-propionyl-1,2,3,4-tetrahydroquinolin-4-yl]amino}benzamide)]
 | 3.18 | CCC(=O)N1c2ccccc2[C@H](Nc2ccc(C(=O)NCCNC(=O)c3ccc(C4=N[C@@H](CC(=O)OC(C)(C)C)c5nnc(C)n5-c5sc(C)c(C)c54)cc3)cc2)C[C@@H]1C [Compound 1o, tert-Butyl 2-[(S)-2,3,9-trimethyl-4-(4-{[2-(4-{[(2S,4R)-2-methyl-1-propionyl-1,2,3,4-tetrahydroquinolin-4-yl]amino}benzamide)ethyl]carbamoyl}phenyl)-6H-thieno[3,2-f][1,2,4]triazolo[4,3-a][1,4]diazepin-6-yl]acetate]
 | 4.31 | CCC(=O)N1c2ccccc2[C@H](Nc2ccc(NC(=O)CCNS(=O)(=O)c3ccc(N[C@@H]4C[C@H](C)N(C(=O)CC)c5ccccc54)cc3)cc2)C[C@@H]1C [Compound 6e, N-(4-(((2S,4R)-2-Methyl-1-propionyl-1,2,3,4-tetrahydroquinolin-4-yl)amino)phenyl)-3-((4-(((2S,4R)-2-methyl-1-propionyl-1,2,3,4-tetrahydroquinolin-4-yl)amino)phenyl)sulfonamide)propanamide]
 | 0.11 | CCC(=O)N1c2ccccc2[C@H](Nc2ccc(C(=O)c3cnc4n3CCN(C(=O)c3ccc(N[C@@H]5C[C@H](C)N(C(=O)CC)c6ccccc65)cc3)C4)cc2)C[C@@H]1C [Compound 6f, 1,1′-((2S,2'S,4R,4R)-(((5,6,7,8-Tetrahydroimidazo[1,2-a]pyrazine-3,7-dicarbonyl)bis(4,1-phenylene))bis(azanediyl))bis(2-methyl-3,4-dihydroquinoline-4,1(2H)-diyl))bis(propan-1-one)]
 | 10.8 | CCC(=O)N1c2ccccc2[C@H](Nc2ccc(NC(=O)N3CC(NC(=O)C4CCC(N[C@@H]5C[C@H](C)N(C(=O)CC)c6ccccc65)CC4)C3)cc2)C[C@@H]1C (stereo partly drawn) [Compound 7a, 3-((1R,4r)-4-(((2S,4R)-2-Methyl-1-propionyl-1,2,3,4-tetrahydroquinolin-4-yl)amino)cyclohexane-1-carboxamide)-N-(4-(((2S,4R)-2-methyl-1-propionyl-1,2,3,4-tetrahydroquinolin-4-yl)amino)phenyl)azetidine-1-carboxamide]
 | 7 | CCC(=O)N1c2ccccc2[C@H](Nc2ccc(NC(=O)C3CN(C(=O)N[C@H]4CC[C@H](N[C@@H]5C[C@H](C)N(C(=O)CC)c6ccccc65)CC4)C3)cc2)C[C@@H]1C [Compound 7c, N^1-((1R,4r)-4-(((2S,4R)-2-Methyl-1-propionyl-1,2,3,4-tetrahydroquinolin-4-yl)amino)cyclohexyl)-N^3-(4-(((2S,4R)-2-methyl-1-propionyl-1,2,3,4-tetrahydroquinolin-4-yl)amino)phenyl)azetidine-1,3-dicarboxamide]
 | 3.2 | CCC(=O)N1c2ccccc2[C@H](Nc2ccc(NC(=O)COC(=O)N[C@H]3CC[C@H](N[C@@H]4C[C@H](C)N(C(=O)CC)c5ccccc54)CC3)cc2)C[C@@H]1C [Compound 7f, 2-((4-(((2S,4R)-2-Methyl-1-propionyl-1,2,3,4-tetrahydroquinolin-4-yl)amino)phenyl)amino)-2-oxoethyl ((1R,4R)-4-(((2S,4R)-2-methyl-1-propionyl-1,2,3,4-tetrahydroquinolin-4-yl)amino)cyclohexyl)carbamate]
 | 7.56 | CCC(=O)N1c2ccccc2[C@H](Nc2ccc(NC(=O)c3coc(N[C@H]4CC[C@H](N[C@@H]5C[C@H](C)N(C(=O)CC)c6ccccc65)CC4)n3)cc2)C[C@@H]1C [Compound 7g, 2-(((1R,4R)-4-(((2S,4R)-2-Methyl-1-propionyl-1,2,3,4-tetrahydroquinolin-4-yl)amino)cyclohexyl)amino)-N-(4-(((2S,4R)-2-methyl-1-propionyl-1,2,3,4-tetrahydroquinolin-4-yl)amino)phenyl)oxazole-4-carboxamide]

SMILES | IC90 (Homo sapiens) [nM] | IC90 [nM]
Cc1sc2c(c1C)C(c1ccc(C(=O)NC3CCN(C(=O)c4ccc(C5=N[C@@H](CC(=O)OC(C)(C)C)c6nnc(C)n6-c6sc(C)c(C)c65)cc4)CC3)cc1)=N[C@@H](CC(=O)OC(C)(C)C)c1nnc(C)n1-2 [Compound 1i, tert-Butyl 2-((S)-4-{4-[4-(4-{(S)-6-[2-(tert-butoxy)-2-oxoethyl]-2,3,9-trimethyl-6H-thieno[3,2-f][1,2,4]triazolo[4,3-a][1,4]diazepin-4-yl}benzamide)piperidine-1-carbonyl]phenyl}-2,3,9-trimethyl-6H-thieno[3,2-f][1,2,4]triazolo[4,3-a][1,4]diazepin-6-yl)acetate] |  | 0.54
Cc1sc2c(c1C)C(c1ccc(NC(=O)CNC(=O)c3ccc(C4=N[C@@H](CC(=O)OC(C)(C)C)c5nnc(C)n5-c5sc(C)c(C)c54)cc3)cc1)=N[C@@H](CC(=O)OC(C)(C)C)c1nnc(C)n1-2 [Compound 2b, tert-Butyl 2-[(S)-4-{4-[2-(4-{(S)-6-[2-(tert-butoxy)-2-oxoethyl]-2,3,9-trimethyl-6H-thieno[3,2-f][1,2,4]triazolo[4,3-a][1,4]diazepin-4-yl}benzamide)acetamide]phenyl}-2,3,9-trimethyl-6H-thieno[3,2-f][1,2,4]triazolo[4,3-a][1,4]diazepin-6-yl]acetate] |  | 1.52
